Assay results published in US20080234188A1, “Antimicrobial Peptides” (The Hospital for Sick Children, priority 2001, published 2008).
In brackets after ≈: the same amount, converted by molar mass. Like-named read-outs stand apart in the source and are kept apart here. Where a SMILES comes first, the peptide text is derived from it. Where no end group is shown, it is not given here.

Key:
[1] = Hydrophobicity (hydropathy) from reverse-phase HPLC retention scale; format: physicochemical; set-up: key to Average Hydrophobicity of Core Sequence / Mean Core segment Hydrophobicity: arithmetic average of Table 1 hydropathy values of constituent residues; key to Hydropathy: hydropathy scale from HPLC retention times of model peptides (Table 1); details: for Mean residue hydropathy of X-residue peptide / Hydropathy: Table 1; for Hydropathy: of the X-residue, from HPLC retention of KKAAAXAAAAAXAAWAAXAAAKKKK-amide peptides; for Mean Core segment Hydrophobicity: Table 3
Text: The “hydrophobicity value” of an amino acid residue means the hydrophobicity value of that residue as shown in Table 1 or as calculated by the method described herein.
The “hydrophobicity value” of an amino acid sequence or peptide means the arithmetic average of the individual hydrophobicity values of the constituent amino acid residues of the sequence.
Various hydrophobicity scales for proteins and amino acids have been described in the literature but the inventors have established the hydrophobicity scale of Table 1 based on the retention times on HPLC of a series of hydrophobic model peptides, as described in Liu and Deber (1998), Biopolymers (Peptide Science), v. 47, pp. 41-62).
The hydrophobicity value shown for each amino acid in Table 1 as “hydropathy” may be used as the hydrophobicity value for that amino acid in any peptide whose hydrophobicity value has to be calculated. The “average hydrophobicity” of a peptide containing amino acids shown in Table 1 is calculated by determining the arithmetic average of the Table 1 “hydropathy” values for the constituent amino acids of the sequence.
Peptides in accordance with the invention may also include other amino acids. For an amino acid not included in Table 1, the hydrophobicity value may be determined by the same method as described herein for obtaining the values of Table 1. For example, a peptide such as KKAAAXAAAAAXAAXAAXAAAKKKK-amide (Sequence ID No: 1) may be synthesized, where X is the amino acid whose hydrophobicity value is to be determined, and the retention time of the peptide on HPLC is determined, as described in the Examples. Similar peptides where X is Lys or Phe are also prepared and their HPLC retention times determined. The retention time, Rx, is converted to the hydropathy value H for the selected amino acid using the equation
H=(10×ΔtRx-Lys/ΔtRPhe-Lys)−5.00
where ΔtRx-Lys=retention time difference in minutes between Rx and the retention time of the most hydrophilic peptide tested (X=Lys) and where ΔtRPhe-Lys=retention time difference in minutes between the most hydrophobic peptide tested (X=Phe) and the most hydrophilic (X=Lys).
The retention time of each peptide was determined on a C4 reversed-phase column (4.6×250 mm, 300 A pore size, 10 μ particle size). Equal amounts of each peptide were injected into the column and eluted at a flow rate of 1 mL/min, utilizing a linear AB gradient (2% B/min), where buffer A was 0.1% TFA/ddH2O, and buffer B was 0.1% TFA/acetonitrile. The retention time of each peptide reported here was the average of triplicate measurements.

[2] = system: Corynebacterium xerosis (C875); format: cell-based
Text: (§1) The bacterial strains used were E. coli C498, E. coli C500, Escherichia coli UB1005 and its antibiotic supersusceptible derivative DC2 (22); a clinical isolate of Staphylococcus epidermidis (C621); coryneform bacterial strain Corynebacterium xerosis (C875); and E. coli ATCC 25922, Staphylococcus aureus ATCC 25923, Enterococcus faecalis ATCC 29212, Bacillus subtilis ATCC 6633 and Pseudomonas aeruginosa ATCC 27853, all from American Type Culture Collection.
(§2) Peptide antibacterial activity was assessed by the method of R. Hancock et al. (Wu & Hancock (1999), J. Biol. Chem., v. 274, pp. 29-35). Test strains of bacteria from Mueller Hinton agar (MHA) plates were inoculated into 5 ml Mueller Hinton Broth (MHB) in tubes and grown overnight at 37° C. on a shaker (180 rpm). Serial dilutions of test peptides (at 10 times the required test concentrations) were made in 0.01% acetic acid, 0.2% BSA, in polypropylene or coated glass tubes as follows: the test peptide was (a) dissolved in distilled water at 20 times the required maximum concentration (enough final volume for all tests to be performed on a given day); (b) diluted into an equal volume of 0.02% acetic acid, 0.4% BSA to give 10 times the required maximum concentration; (c) serial doubling dilutions were performed in 0.01% acetic acid, 0.2% BSA to provide serial dilutions of peptides at 10 times the required test concentrations, e.g., 640, 320, 160, . . . 2.5 μg/ml. (No deleterious effects of long-term storage of peptides in these media have been detected). Overnight bacterial cultures were diluted in MHB to give 2−7×10^5 colony forming units/ml. Bacterial suspension (100 μl) was dispensed in each well; controls without bacteria were maintained in parallel. To each well was added 11 μl of 10× test peptide and plates were incubated at 37° C. for 18-24 hours, and checked again at 40-48 hours. Plates were read visually and at 600 nm in a microplate reader (Molecular Devices).
(§3) were synthesized. The antibacterial activity of these peptides was determined against both Gram-positive bacteria ([…], Corynebacterium xerosis) and Gram-negative bacteria (various strains of E. coli). The results are shown in Table 2, along with the average hydrophobicity of each peptide, calculated as described herein.
(§4) A further number of the peptides of the invention were tested for antimicrobial activity against a range of Gram-positive and Gram-negative bacteria by the assay described immediately before Example 1.

[3] = system: Staphylococcus epidermidis (C621); format: cell-based
Text: as §1, §2, §3, §4

E. coli DC2 = experiment: Assay of antibacterial activity (MIC), E. coli DC2; format: cell-based, Escherichia coli; details: Table 3; Gram-negative
Text: as §1, §2, §4

E. coli UB1005 = format: cell-based, Escherichia coli
Text: as §1, §2, §4

## N=C(N)NCCC[C@H](N)C(=O)O [Arg]
[1]
  Mean residue hydropathy of X-residue peptide: −0.05
  Hydropathy: −2.77

## C[C@H](NC(=O)CNC(=O)[C@H](C)NC(=O)[C@H](C)NC(=O)[C@H](C)NC(=O)[C@H](CCCCN)NC(=O)[C@@H](N)CCCCN)C(=O)N[C@@H](C)C(=O)N[C@@H](C)C(=O)N[C@@H](C)C(=O)N[C@@H](C)C(=O)NCC(=O)N[C@@H](C)C(=O)N[C@@H](C)C(=O)N[C@@H](Cc1c[nH]c2ccccc12)C(=O)N[C@@H](C)C(=O)N[C@@H](C)C(=O)NCC(=O)N[C@@H](C)C(=O)N[C@@H](C)C(=O)N[C@@H](C)C(=O)N[C@@H](CCCCN)C(=O)N[C@@H](CCCCN)C(=O)N[C@@H](CCCCN)C(=O)N[C@@H](CCCCN)C(N)=O [G] (H-KKAAAGAAAAAGAAWAAGAAAKKKK-NH2; N-terminus assumed)
[2]
  MIC C. xerosis C875: >64 µM
[3]; C621
  MIC S. epidermidis C621: >64 µM
E. coli DC2
  MIC E. coli DC2: >64 µM
E. coli UB1005; UB1005
  MIC E. coli UB1005: >64 µM
[1]
  Mean residue hydropathy of X-residue peptide: −0.13
  Hydropathy: −3.31
  Mean Core segment Hydrophobicity: −0.13

## C[C@H](NC(=O)[C@H](C)NC(=O)[C@H](C)NC(=O)[C@H](CC(N)=O)NC(=O)[C@H](C)NC(=O)[C@H](C)NC(=O)[C@H](C)NC(=O)[C@H](CCCCN)NC(=O)[C@@H](N)CCCCN)C(=O)N[C@@H](C)C(=O)N[C@@H](C)C(=O)N[C@@H](CC(N)=O)C(=O)N[C@@H](C)C(=O)N[C@@H](C)C(=O)N[C@@H](Cc1c[nH]c2ccccc12)C(=O)N[C@@H](C)C(=O)N[C@@H](C)C(=O)N[C@@H](CC(N)=O)C(=O)N[C@@H](C)C(=O)N[C@@H](C)C(=O)N[C@@H](C)C(=O)N[C@@H](CCCCN)C(=O)N[C@@H](CCCCN)C(=O)N[C@@H](CCCCN)C(=O)N[C@@H](CCCCN)C(N)=O [N] (H-KKAAANAAAAANAAWAANAAAKKKK-NH2; N-terminus assumed)
[2]
  MIC C. xerosis C875: >64 µM
[3]; C621
  MIC S. epidermidis C621: >64 µM
E. coli DC2
  MIC E. coli DC2: >64 µM
E. coli UB1005; UB1005
  MIC E. coli UB1005: >64 µM
[1]
  Mean residue hydropathy of X-residue peptide: −0.16
  Hydropathy: −3.79
  Mean Core segment Hydrophobicity: −0.21

## C[C@H](NC(=O)[C@H](C)NC(=O)[C@H](C)NC(=O)[C@@H](NC(=O)[C@H](C)NC(=O)[C@H](C)NC(=O)[C@H](C)NC(=O)[C@H](CCCCN)NC(=O)[C@@H](N)CCCCN)[C@@H](C)O)C(=O)N[C@@H](C)C(=O)N[C@@H](C)C(=O)N[C@H](C(=O)N[C@@H](C)C(=O)N[C@@H](C)C(=O)N[C@@H](Cc1c[nH]c2ccccc12)C(=O)N[C@@H](C)C(=O)N[C@@H](C)C(=O)N[C@H](C(=O)N[C@@H](C)C(=O)N[C@@H](C)C(=O)N[C@@H](C)C(=O)N[C@@H](CCCCN)C(=O)N[C@@H](CCCCN)C(=O)N[C@@H](CCCCN)C(=O)N[C@@H](CCCCN)C(N)=O)[C@@H](C)O)[C@@H](C)O [T] (H-KKAAATAAAAATAAWAATAAAKKKK-NH2; N-terminus assumed)
[2]
  MIC C. xerosis C875: >64 µM
[3]; C621
  MIC S. epidermidis C621: >64 µM
E. coli DC2
  MIC E. coli DC2: >64 µM
E. coli UB1005; UB1005
  MIC E. coli UB1005: >64 µM
[1]
  Mean residue hydropathy of X-residue peptide: 0.22
  Hydropathy: −1.08
  Mean Core segment Hydrophobicity: 0.22

## CC(C)[C@H](NC(=O)[C@H](C)NC(=O)[C@H](C)NC(=O)[C@H](C)NC(=O)[C@H](CCCCN)NC(=O)[C@@H](N)CCCCN)C(=O)N[C@@H](C)C(=O)N[C@@H](C)C(=O)N[C@@H](C)C(=O)N[C@@H](C)C(=O)N[C@@H](C)C(=O)N[C@H](C(=O)N[C@@H](C)C(=O)N[C@@H](C)C(=O)N[C@@H](Cc1c[nH]c2ccccc12)C(=O)N[C@@H](C)C(=O)N[C@@H](C)C(=O)N[C@H](C(=O)N[C@@H](C)C(=O)N[C@@H](C)C(=O)N[C@@H](C)C(=O)N[C@@H](CCCCN)C(=O)N[C@@H](CCCCN)C(=O)N[C@@H](CCCCN)C(=O)N[C@@H](CCCCN)C(N)=O)C(C)C)C(C)C [V] (H-KKAAAVAAAAAVAAWAAVAAAKKKK-NH2; N-terminus assumed)
[2]; Example 5, active on C. xerosis, not on the other bacteria tested
  Antimicrobial activity, spectrum (in words): activity against gram-positive C. xerosis only
[2]; Table 3, Gram-positive
  MIC C. xerosis C875: 0.5 µM (≈ 1.17 µg/mL)
[3]; Table 3, Gram-positive
  MIC S. epidermidis C621: >32 µM
E. coli DC2
  MIC E. coli DC2: >32 µM
E. coli UB1005; Table 3, Gram-negative
  MIC E. coli UB1005: >32 µM
[1]
  Mean residue hydropathy of X-residue peptide: 0.87
  Hydropathy: 3.02
  Mean Core segment Hydrophobicity: 0.87

## Asp: KKAAAXAAAAAXAAWAAXAAAKKKK-amide peptide with X-residue Asp (KKAAADAAAAADAAWAADAAAKKKK-NH2)
[1]
  Mean residue hydropathy of X-residue peptide: 0.00
  Hydropathy: −2.49

## Gln: KKAAAXAAAAAXAAWAAXAAAKKKK-amide peptide with X-residue Gln (KKAAAQAAAAAQAAWAAQAAAKKKK-NH2)
[1]
  Mean residue hydropathy of X-residue peptide: −0.04
  Hydropathy: −2.75

## Glu: KKAAAXAAAAAXAAWAAXAAAKKKK-amide peptide with X-residue Glu (KKAAAEAAAAAEAAWAAEAAAKKKK-NH2)
[1]
  Mean residue hydropathy of X-residue peptide: 0.16
  Hydropathy: −1.49

## His: KKAAAXAAAAAXAAWAAXAAAKKKK-amide peptide with X-residue His (X = His; C-terminal amide)
[1]
  Mean residue hydropathy of X-residue peptide: −0.34
  Hydropathy: −4.63

## K25: KKAAAXAAAAAXAAWAAXAAAKKKK-amide peptide with X = Lys, most hydrophilic peptide tested (KKAAAKAAAAAKAAWAAKAAAKKKK-NH2) [Peptide K25]
[1]
  Mean residue hydropathy of X-residue peptide: −0.40
  Hydropathy: −5.00

## Pro: KKAAAXAAAAAXAAWAAXAAAKKKK-amide peptide with X-residue Pro (KKAAAPAAAAAPAAWAAPAAAKKKK-NH2)
[1]
  Mean residue hydropathy of X-residue peptide: −0.39
  Hydropathy: −4.92
